Measurements: paper PMC7265341, “Quantifying CDK inhibitor selectivity in live cells” (Nature Communications, 2020)
Where two headings read alike, the source gives them in different places.

Columns and labels:
CDK1/Cyclin E1 = CDK1/Cyclin E1 (Homo sapiens, UniProt P06493); assay: NanoBRET live-cell target engagement, CDK1-NanoLuc/Cyclin E1 in HEK-293; assay type: binding; details: 10µM, read-out: CDK1/E1 Inhibition at 10µM (%)
CDK2/Cyclin E1 = CDK2/Cyclin E1 (Homo sapiens, UniProt P24941); assay: NanoBRET live-cell target engagement, CDK2-NanoLuc/Cyclin E1 in HEK-293; assay type: binding; details: 10µM, read-out: CDK2/E1 Inhibition at 10µM (%)
CDK3/Cyclin E1 = CDK3/Cyclin E1 (Homo sapiens, UniProt Q00526); assay: NanoBRET live-cell target engagement, CDK3-NanoLuc/Cyclin E1 in HEK-293; assay type: binding; details: 10µM, read-out: CDK3/E1 Inhibition at 10µM (%)
CDK4/Cyclin D1 = CDK4/Cyclin D1 (Homo sapiens, UniProt P11802); assay: NanoBRET live-cell target engagement, NanoLuc-CDK4/Cyclin D1 in HEK-293; assay type: binding; details: 10µM, read-out: CDK4/D1 Inhibition at 10µM (%)
CDK5/CDK5R1 = CDK5/CDK5R1 (Homo sapiens, UniProt Q00535); assay: NanoBRET live-cell target engagement, CDK5-NanoLuc/CDK5R1 in HEK-293; assay type: binding; details: 10µM, read-out: CDK5/CDK5R1 Inhibition at 10µM (%)
CDK6/Cyclin D1 = CDK6/Cyclin D1 (Homo sapiens, UniProt Q00534); assay: NanoBRET live-cell target engagement, NanoLuc-CDK6/Cyclin D1 in HEK-293; assay type: binding; details: 10µM, read-out: CDK6/D1 Inhibition at 10µM (%)
Chain of CDK6/Cyclin D1 (Q00534 whole entry): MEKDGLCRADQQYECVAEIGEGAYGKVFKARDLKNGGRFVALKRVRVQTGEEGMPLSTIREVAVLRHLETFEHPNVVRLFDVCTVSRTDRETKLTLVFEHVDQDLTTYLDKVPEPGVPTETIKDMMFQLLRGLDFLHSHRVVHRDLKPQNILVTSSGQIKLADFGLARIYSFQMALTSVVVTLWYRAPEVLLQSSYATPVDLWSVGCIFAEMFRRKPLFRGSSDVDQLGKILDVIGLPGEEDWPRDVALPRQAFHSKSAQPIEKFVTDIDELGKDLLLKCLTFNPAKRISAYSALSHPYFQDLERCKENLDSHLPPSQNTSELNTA
Chain of CDK6/Cyclin D1 (P24385 whole entry partner): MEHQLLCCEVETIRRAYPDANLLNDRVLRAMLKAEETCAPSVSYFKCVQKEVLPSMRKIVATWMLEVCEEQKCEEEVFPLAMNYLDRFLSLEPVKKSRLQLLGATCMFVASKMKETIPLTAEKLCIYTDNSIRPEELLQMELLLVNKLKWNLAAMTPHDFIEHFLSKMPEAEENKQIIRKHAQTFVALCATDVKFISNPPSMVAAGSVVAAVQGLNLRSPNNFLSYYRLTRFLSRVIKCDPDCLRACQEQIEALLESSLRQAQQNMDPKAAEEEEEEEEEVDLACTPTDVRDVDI

CDK8/Cyclin C = CDK8/Cyclin C (Homo sapiens, UniProt P49336); assay: NanoBRET live-cell target engagement, NanoLuc-CDK8/Cyclin C in HEK-293; assay type: binding; details: 10µM, read-out: CDK8/C Inhibition at 10µM (%)
Chain of CDK8/Cyclin C (P49336 whole entry): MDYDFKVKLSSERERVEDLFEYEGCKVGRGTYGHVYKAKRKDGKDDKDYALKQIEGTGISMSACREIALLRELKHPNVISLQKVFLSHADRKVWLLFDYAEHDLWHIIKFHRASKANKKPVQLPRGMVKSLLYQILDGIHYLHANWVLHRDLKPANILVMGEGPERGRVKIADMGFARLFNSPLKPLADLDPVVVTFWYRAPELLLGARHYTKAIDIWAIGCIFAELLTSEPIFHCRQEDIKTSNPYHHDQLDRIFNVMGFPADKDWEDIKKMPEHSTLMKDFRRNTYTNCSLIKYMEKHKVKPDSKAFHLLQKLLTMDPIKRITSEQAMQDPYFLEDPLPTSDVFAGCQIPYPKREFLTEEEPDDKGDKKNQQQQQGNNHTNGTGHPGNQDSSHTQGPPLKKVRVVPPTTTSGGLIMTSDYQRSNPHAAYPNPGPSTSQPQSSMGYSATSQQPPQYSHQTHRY
Chain of CDK8/Cyclin C (P24863 whole entry partner): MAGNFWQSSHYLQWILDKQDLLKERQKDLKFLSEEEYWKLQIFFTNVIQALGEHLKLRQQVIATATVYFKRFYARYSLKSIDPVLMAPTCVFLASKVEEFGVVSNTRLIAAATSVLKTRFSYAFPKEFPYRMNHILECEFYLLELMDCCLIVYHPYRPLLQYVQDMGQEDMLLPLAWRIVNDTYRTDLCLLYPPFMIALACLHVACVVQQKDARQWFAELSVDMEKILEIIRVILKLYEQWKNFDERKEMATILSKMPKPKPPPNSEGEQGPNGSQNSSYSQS

CDK9/Cyclin K = CDK9/Cyclin K (Homo sapiens, UniProt P50750); assay: NanoBRET live-cell target engagement, NanoLuc-CDK9/Cyclin K in HEK-293; assay type: binding; details: 10µM, read-out: CDK9/K Inhibition at 10µM (%)
Chain of CDK9/Cyclin K (P50750 whole entry): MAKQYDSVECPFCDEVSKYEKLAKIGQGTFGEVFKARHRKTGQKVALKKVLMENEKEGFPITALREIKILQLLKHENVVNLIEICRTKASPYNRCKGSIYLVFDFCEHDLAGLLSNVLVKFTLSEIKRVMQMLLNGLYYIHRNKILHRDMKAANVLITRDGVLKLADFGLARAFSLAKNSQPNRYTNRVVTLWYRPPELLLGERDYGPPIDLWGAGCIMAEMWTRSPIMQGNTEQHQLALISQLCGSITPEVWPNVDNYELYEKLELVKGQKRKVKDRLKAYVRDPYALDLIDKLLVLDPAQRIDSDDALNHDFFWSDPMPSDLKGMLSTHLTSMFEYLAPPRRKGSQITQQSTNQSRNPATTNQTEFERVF
Chain of CDK9/Cyclin K (O75909 whole entry partner): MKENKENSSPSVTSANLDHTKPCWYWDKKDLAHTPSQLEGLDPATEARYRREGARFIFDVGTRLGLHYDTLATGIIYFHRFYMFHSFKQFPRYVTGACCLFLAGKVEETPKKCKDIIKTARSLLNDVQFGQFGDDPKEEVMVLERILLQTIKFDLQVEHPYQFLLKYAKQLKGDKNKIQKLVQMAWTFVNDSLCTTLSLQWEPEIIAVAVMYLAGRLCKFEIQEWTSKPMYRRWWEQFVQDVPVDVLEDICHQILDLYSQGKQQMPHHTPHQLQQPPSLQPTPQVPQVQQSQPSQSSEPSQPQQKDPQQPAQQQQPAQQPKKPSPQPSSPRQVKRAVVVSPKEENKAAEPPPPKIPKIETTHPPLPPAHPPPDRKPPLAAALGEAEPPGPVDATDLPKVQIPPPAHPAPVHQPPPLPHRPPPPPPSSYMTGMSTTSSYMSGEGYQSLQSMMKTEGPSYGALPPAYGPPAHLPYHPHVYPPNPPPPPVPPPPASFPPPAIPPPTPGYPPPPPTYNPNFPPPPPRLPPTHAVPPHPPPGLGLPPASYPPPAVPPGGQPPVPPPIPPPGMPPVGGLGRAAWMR

CDK11A/Cyclin L2 = biological target: T1, CDK11A/Cyclin L2 (Homo sapiens, UniProt Q9UQ88); assay: NanoBRET live-cell target engagement, CDK11A-NanoLuc/Cyclin L2 in HEK-293; assay type: binding; details: 10µM, read-out: CDK11a/L2 Inhibition at 10µM (%)
T1 sequence (Q9UQ88 1-783): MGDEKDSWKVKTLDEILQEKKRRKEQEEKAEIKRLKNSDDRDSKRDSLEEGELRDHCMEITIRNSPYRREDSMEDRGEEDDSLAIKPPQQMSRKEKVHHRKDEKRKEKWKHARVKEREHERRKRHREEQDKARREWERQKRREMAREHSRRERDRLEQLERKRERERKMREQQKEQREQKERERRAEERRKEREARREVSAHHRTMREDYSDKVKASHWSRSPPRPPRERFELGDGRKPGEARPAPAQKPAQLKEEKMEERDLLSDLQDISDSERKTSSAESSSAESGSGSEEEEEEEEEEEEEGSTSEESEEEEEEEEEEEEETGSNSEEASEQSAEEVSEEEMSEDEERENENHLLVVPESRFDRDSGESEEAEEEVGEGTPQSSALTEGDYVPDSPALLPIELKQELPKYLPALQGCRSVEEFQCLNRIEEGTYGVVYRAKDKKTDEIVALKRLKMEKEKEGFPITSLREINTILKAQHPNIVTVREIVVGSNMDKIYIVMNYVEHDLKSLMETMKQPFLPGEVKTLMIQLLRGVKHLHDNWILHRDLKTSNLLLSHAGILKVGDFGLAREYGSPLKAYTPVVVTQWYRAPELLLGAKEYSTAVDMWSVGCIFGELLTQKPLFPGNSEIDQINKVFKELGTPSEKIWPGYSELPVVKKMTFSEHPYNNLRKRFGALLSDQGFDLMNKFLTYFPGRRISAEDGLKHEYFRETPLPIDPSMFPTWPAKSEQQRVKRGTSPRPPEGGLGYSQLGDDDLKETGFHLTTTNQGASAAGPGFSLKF

CDK11B/Cyclin L2 = CDK11B/Cyclin L2 (Homo sapiens, UniProt P21127); assay: NanoBRET live-cell target engagement, CDK11B-NanoLuc/Cyclin L2 in HEK-293; assay type: binding; details: 10µM, read-out: CDK11b/L2 Inhibition at 10µM (%)
CDK12/Cyclin K = CDK12/Cyclin K (Homo sapiens, UniProt Q9NYV4); assay: NanoBRET live-cell target engagement, CDK12-NanoLuc/Cyclin K in HEK-293; assay type: binding; details: 10µM, read-out: CDK12/K Inhibition at 10µM (%)
CDK13/Cyclin K = CDK13/Cyclin K (Homo sapiens, UniProt Q14004); assay: NanoBRET live-cell target engagement, CDK13-NanoLuc/Cyclin K in HEK-293; assay type: binding; details: 10µM, read-out: CDK13/K Inhibition at 10µM (%)
CDK15/Cyclin Y = CDK15/Cyclin Y (Homo sapiens, UniProt Q96Q40); assay: NanoBRET live-cell target engagement, NanoLuc-CDK15/Cyclin Y in HEK-293; assay type: binding; details: 10µM, read-out: CDK15/Y Inhibition at 10µM (%)
CDK16/Cyclin Y = CDK16/Cyclin Y (Homo sapiens, UniProt Q00536); assay: NanoBRET live-cell target engagement, CDK16-NanoLuc/Cyclin Y in HEK-293; assay type: binding; details: for inhibition at 10 µM: read-out: CDK16/Y Inhibition at 10µM (%); for IC50: read-out: CDK16/Y IC50
Chain of CDK16/Cyclin Y (Q00536 whole entry): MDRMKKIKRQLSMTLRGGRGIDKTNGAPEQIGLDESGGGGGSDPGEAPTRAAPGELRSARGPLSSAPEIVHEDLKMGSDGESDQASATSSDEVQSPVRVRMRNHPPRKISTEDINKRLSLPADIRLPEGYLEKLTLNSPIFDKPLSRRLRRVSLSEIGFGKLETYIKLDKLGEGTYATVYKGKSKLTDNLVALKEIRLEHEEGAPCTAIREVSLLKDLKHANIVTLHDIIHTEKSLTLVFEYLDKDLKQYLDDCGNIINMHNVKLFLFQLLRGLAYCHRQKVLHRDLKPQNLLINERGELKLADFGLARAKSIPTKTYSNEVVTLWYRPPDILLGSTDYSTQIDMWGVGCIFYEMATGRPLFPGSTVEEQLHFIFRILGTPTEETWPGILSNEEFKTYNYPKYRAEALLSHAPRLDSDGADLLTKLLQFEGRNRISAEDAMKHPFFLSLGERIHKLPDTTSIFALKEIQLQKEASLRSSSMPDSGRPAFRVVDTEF
Chain of CDK16/Cyclin Y (Q8ND76 whole entry partner): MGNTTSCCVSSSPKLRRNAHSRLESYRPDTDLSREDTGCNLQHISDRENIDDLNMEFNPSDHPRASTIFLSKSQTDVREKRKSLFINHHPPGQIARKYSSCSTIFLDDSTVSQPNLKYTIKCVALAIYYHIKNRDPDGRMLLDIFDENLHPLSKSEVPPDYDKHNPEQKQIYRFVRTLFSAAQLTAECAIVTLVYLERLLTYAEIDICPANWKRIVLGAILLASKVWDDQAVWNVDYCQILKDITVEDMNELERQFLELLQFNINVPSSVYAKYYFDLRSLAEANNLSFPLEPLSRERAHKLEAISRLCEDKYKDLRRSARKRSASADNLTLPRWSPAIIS

CDK17/Cyclin Y = CDK17/Cyclin Y (Homo sapiens, UniProt Q00537); assay: NanoBRET live-cell target engagement, CDK17-NanoLuc/Cyclin Y in HEK-293; assay type: binding; details: for inhibition at 10 µM: read-out: CDK17/Y Inhibition at 10µM (%); for IC50: read-out: CDK17/Y IC50
Chain of CDK17/Cyclin Y (Q00537 whole entry): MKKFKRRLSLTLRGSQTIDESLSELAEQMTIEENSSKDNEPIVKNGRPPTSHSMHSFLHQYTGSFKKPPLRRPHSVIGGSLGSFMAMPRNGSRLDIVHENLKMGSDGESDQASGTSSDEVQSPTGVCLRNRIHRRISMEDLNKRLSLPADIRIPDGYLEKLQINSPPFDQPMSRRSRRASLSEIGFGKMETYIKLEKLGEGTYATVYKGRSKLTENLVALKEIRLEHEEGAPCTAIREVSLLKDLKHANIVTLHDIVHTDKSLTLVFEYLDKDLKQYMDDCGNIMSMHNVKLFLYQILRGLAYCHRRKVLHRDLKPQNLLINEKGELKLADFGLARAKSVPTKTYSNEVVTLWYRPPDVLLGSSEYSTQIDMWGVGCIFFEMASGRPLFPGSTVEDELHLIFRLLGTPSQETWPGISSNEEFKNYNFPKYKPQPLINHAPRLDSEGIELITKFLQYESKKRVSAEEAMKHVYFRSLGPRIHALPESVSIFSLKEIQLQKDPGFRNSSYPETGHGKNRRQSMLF
Chain of CDK17/Cyclin Y (Q8ND76 whole entry partner): as the sequence (Q8ND76 whole entry partner) above

CDK18/Cyclin Y = CDK18/Cyclin Y (Homo sapiens, UniProt Q07002); assay: NanoBRET live-cell target engagement, CDK18-NanoLuc/Cyclin Y in HEK-293; assay type: binding; details: 10µM, read-out: CDK18/Y Inhibition at 10µM (%)
Chain of CDK18/Cyclin Y (Q07002 whole entry): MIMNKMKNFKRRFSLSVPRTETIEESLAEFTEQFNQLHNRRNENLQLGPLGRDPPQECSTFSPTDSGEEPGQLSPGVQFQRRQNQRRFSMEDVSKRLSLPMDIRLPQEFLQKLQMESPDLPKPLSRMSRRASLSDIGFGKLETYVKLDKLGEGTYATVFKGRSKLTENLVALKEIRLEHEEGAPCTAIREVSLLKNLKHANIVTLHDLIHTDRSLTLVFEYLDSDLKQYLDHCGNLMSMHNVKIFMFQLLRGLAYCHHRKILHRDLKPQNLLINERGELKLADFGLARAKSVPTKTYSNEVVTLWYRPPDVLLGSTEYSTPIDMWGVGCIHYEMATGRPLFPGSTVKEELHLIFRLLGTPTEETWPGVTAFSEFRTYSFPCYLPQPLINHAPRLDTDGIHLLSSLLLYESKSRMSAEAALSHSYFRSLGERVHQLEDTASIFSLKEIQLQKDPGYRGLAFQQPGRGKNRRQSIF
Chain of CDK18/Cyclin Y (Q8ND76 whole entry partner): as the sequence (Q8ND76 whole entry partner) above

CDK20/Cyclin H = CDK20/Cyclin H (Homo sapiens, UniProt Q8IZL9); assay: NanoBRET live-cell target engagement, NanoLuc-CDK20/Cyclin H in HEK-293; assay type: binding; details: 10µM, read-out: CDK20/H Inhibition at 10µM (%)
CDK19/Cyclin C = CDK19/Cyclin C (Homo sapiens, UniProt Q9BWU1); assay: NanoBRET live-cell target engagement, NanoLuc-CDK19/Cyclin C in HEK-293; details: read-out: CDK19/C Inhibition at 10µM (%), 10µM
CDK10/Cyclin L2 = CDK10/Cyclin L2 (Homo sapiens, UniProt Q15131); assay: NanoBRET live-cell target engagement, CDK10-NanoLuc/Cyclin L2 in HEK-293; details: read-out: CDK10/L2 Inhibition at 10µM (%), 10µM
Chain of CDK10/Cyclin L2 (Q15131 whole entry): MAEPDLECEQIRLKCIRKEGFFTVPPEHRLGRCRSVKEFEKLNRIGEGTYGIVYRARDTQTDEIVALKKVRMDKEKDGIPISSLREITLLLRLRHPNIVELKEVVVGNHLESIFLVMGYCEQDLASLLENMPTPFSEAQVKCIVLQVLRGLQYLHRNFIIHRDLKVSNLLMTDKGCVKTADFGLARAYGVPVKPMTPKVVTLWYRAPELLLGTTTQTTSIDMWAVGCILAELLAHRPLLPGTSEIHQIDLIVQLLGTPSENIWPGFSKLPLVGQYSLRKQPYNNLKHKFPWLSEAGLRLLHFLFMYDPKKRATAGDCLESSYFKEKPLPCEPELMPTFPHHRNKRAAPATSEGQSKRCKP

`CN1CCN(c2ccc(Nc3ncc4cc5n(c4n3)C3(CCCCC3)CNC5=O)nc2)CC1` [Trilaciclib] showed an inhibition at 10 µM (CDK1/Cyclin E1; average of experiments) of 8.6%, an inhibition at 10 µM (CDK1/Cyclin E1; independent experiment 1) of 17.2% and an inhibition at 10 µM (CDK1/Cyclin E1; independent experiment 2) of -0.0634%. For the same molecule, the inhibition at 10 µM (CDK2/Cyclin E1; average of experiments) was 0.461%, the inhibition at 10 µM (CDK2/Cyclin E1; independent experiment 1) was 1.5% and the inhibition at 10 µM (CDK2/Cyclin E1; independent experiment 2) was -0.535%. For the same molecule, the inhibition at 10 µM (CDK3/Cyclin E1; average of experiments) was 2.3%, the inhibition at 10 µM (CDK3/Cyclin E1; independent experiment 1) was 3.5% and the inhibition at 10 µM (CDK3/Cyclin E1; independent experiment 2) was 1.1%. The inhibition at 10 µM (CDK4/Cyclin D1; average of experiments) was 93%, the inhibition at 10 µM (CDK4/Cyclin D1; independent experiment 1) was 97% and the inhibition at 10 µM (CDK4/Cyclin D1; independent experiment 2) was 88.9%. For the same molecule, the inhibition at 10 µM (CDK5/CDK5R1; average of experiments) was -10.2%, the inhibition at 10 µM (CDK5/CDK5R1; independent experiment 1) was 2.3% and the inhibition at 10 µM (CDK5/CDK5R1; independent experiment 2) was -22.7%. It also gave an inhibition at 10 µM (CDK6/Cyclin D1; average of experiments) of 99.4%, an inhibition at 10 µM (CDK6/Cyclin D1; independent experiment 1) of 98.4% and an inhibition at 10 µM (CDK6/Cyclin D1; independent experiment 2) of 100%. The inhibition at 10 µM (CDK8/Cyclin C; average of experiments) was 7.6%, the inhibition at 10 µM (CDK8/Cyclin C; independent experiment 1) was 7.9% and the inhibition at 10 µM (CDK8/Cyclin C; independent experiment 2) was 7.4%. The inhibition at 10 µM (CDK9/Cyclin K; average of experiments) was 38.1%, the inhibition at 10 µM (CDK9/Cyclin K; independent experiment 1) was 30% and the inhibition at 10 µM (CDK9/Cyclin K; independent experiment 2) was 46.2%. For the same molecule, the inhibition at 10 µM (CDK11A/Cyclin L2; average of experiments) was 6.5%, the inhibition at 10 µM (CDK11A/Cyclin L2; independent experiment 1) was 7.3% and the inhibition at 10 µM (CDK11A/Cyclin L2; independent experiment 2) was 5.8%. It also gave an inhibition at 10 µM (CDK11B/Cyclin L2; average of experiments) of 23.5%, an inhibition at 10 µM (CDK11B/Cyclin L2; independent experiment 1) of 6.3% and an inhibition at 10 µM (CDK11B/Cyclin L2; independent experiment 2) of 40.7%. It also gave an inhibition at 10 µM (CDK12/Cyclin K; average of experiments) of -2.6%, an inhibition at 10 µM (CDK12/Cyclin K; independent experiment 1) of -5.3% and an inhibition at 10 µM (CDK12/Cyclin K; independent experiment 2) of 0.155%. It also gave an inhibition at 10 µM (CDK13/Cyclin K; average of experiments) of 3.3%, an inhibition at 10 µM (CDK13/Cyclin K; independent experiment 1) of 1.9% and an inhibition at 10 µM (CDK13/Cyclin K; independent experiment 2) of 4.7%. For the same molecule, the inhibition at 10 µM (CDK15/Cyclin Y; average of experiments) was 8%, the inhibition at 10 µM (CDK15/Cyclin Y; independent experiment 1) was 2.9% and the inhibition at 10 µM (CDK15/Cyclin Y; independent experiment 2) was 13.1%. The inhibition at 10 µM (CDK16/Cyclin Y; independent experiment 1) was 57.8%, the inhibition at 10 µM (CDK16/Cyclin Y; independent experiment 2) was 35.1% and the IC50 (CDK16/Cyclin Y; average (± SEM where n=3)) was 600 ± 200 nM. For the same molecule, the IC50 (CDK16/Cyclin Y; independent experiment 1) was 162 nM, the IC50 (CDK16/Cyclin Y; independent experiment 2) was 870 nM and the IC50 (CDK16/Cyclin Y; independent experiment 3) was 721 nM. For the same molecule, the inhibition at 10 µM (CDK17/Cyclin Y; average of experiments) was 41.1%, the inhibition at 10 µM (CDK17/Cyclin Y; independent experiment 1) was 49.5% and the inhibition at 10 µM (CDK17/Cyclin Y; independent experiment 2) was 32.7%. For the same molecule, the IC50 (CDK17/Cyclin Y; average (± SEM where n=3)) was 500 ± 200 nM, the IC50 (CDK17/Cyclin Y; independent experiment 1) was 113 nM and the IC50 (CDK17/Cyclin Y; independent experiment 2) was 800 nM. For the same molecule, the IC50 (CDK17/Cyclin Y; independent experiment 3) was 628 nM, the inhibition at 10 µM (CDK18/Cyclin Y; average of experiments) was 13.4% and the inhibition at 10 µM (CDK18/Cyclin Y; independent experiment 1) was 6.3%. The inhibition at 10 µM (CDK18/Cyclin Y; independent experiment 2) was 20.6%, the inhibition at 10 µM (CDK20/Cyclin H; independent experiment 1) was 10% and the inhibition at 10 µM (CDK20/Cyclin H; independent experiment 2) was 5.6%. It also gave an inhibition at 10 µM (CDK19/Cyclin C; average of experiments) of 9.4%, an inhibition at 10 µM (CDK19/Cyclin C; independent experiment 1) of 10.3% and an inhibition at 10 µM (CDK19/Cyclin C; independent experiment 2) of 8.5%. It also gave an inhibition at 10 µM (CDK10/Cyclin L2; average of experiments) of 11.6%, an inhibition at 10 µM (CDK10/Cyclin L2; independent experiment 1) of 13.3% and an inhibition at 10 µM (CDK10/Cyclin L2; independent experiment 2) of 9.9%.
